From US8946394B2, “Conjugate for photodynamic diagnosis or therapy and method for preparing same” (Panaxem Co., Ltd., priority 2010, dated 2015) come the findings set out here.

This experiment deals with HeLa cells. In words: Cytotoxicity test (MTT) with and without near infrared irradiation. The format is cell-based. The protocol:
Cytotoxicity test was conducted on the nano-microsphere according to the present invention prepared from Example 1. HeLa cells as cancer cells were incubated in the RPMI 1640 culture medium containing 10% FBS and 1% penicillin in the presence of 5% CO2 at a temperature of 37° C. Then, for the cytotoxicity test, the incubated HeLa cells were dispensed on a 96-well plate at a cell number of 1×10^4 and then incubated for 24 hours. Next day, the nano-microspheres (nano-microspheres added with 1.25 mg of a photosensitizer) according to the present invention were diluted by concentrations, respectively, and then the diluted concentrations were put into each well at 100 μl.
After that, the cells were further incubated for 12 hours so that the nano-microspheres can act on the cells, and then near infrared wavelength light (670 nm) was irradiated at an amount of 1.2 J/cm^2. […]
Lastly, 20 μl of MTT reagent (3-(4,5-dimethylthiazol-2yl)-2,5-diphenyl-2H-tetrazolium bromide) was added to the cells after incubation was completed, followed by again incubating for 3˜4 hours. […] After that, the ELIZA analyzer was used to measure absorbance at 595 nm and thus comparison of the amount of formazan formed was conducted, to thereby confirm cell viability (%) and cytotoxicity of the conjugate (FIGS. 15 and 16).

Consider `CCCC(C)(C)c1cc(Oc2ccc3c(c2)/C2=N/c4c5ccc(Oc6cc(C(C)(C)CCC)c(OC)cc6C(C)(C)CCC)cc5c5[n]4[Zn][n]4/c(c6ccc(Oc7cc(C(C)(C)CCC)c(OC)cc7C(C)(C)CCC)cc6/c4=N/C3=N2)=N\C2=NC(=N\5)/c3ccc(Oc4ccc(C(=O)O)cc4)cc32)c(C(C)(C)CCC)cc1OC` [Zn-Pc-COOH], for which the “apoptosis / cell viability (%)” value by setting is: (near infrared ray (670 nm, 1.2 J/cm^2) irradiated) “apoptosis occurred in proportional to the time for irradiation”; (near infrared ray not irradiated) “apoptosis did not occur”.
